Drawing on patent US9527812B2, “N-heterocyclic carbene-catalyzed synthesis of 2-aryl indoles” (Northwestern University, priority 2014, dated 2016), this text covers melting point for 14 compounds.

A word on the melting point: it is the temperature of the solid-liquid transition. As to `Cc1c(-c2ccccc2)n(C(=O)OC(C)(C)C)c2ccccc12` [4aa, tert-butyl 3-methyl-2-phenyl-1H-indole-1-carboxylate], the melting point lay within 110 to 112 °C. Compound `CC(C)(C)OC(=O)n1c(-c2ccc(Cl)cc2)cc2ccccc21` [4b, tert-butyl 2-(4-chlorophenyl)-1H-indole-1-carboxylate] came in with a melting point of 86 to 87 °C.

`CC(C)(C)OC(=O)n1c(-c2ccc(Br)cc2)cc2ccccc21` [4c, tert-butyl 2-(4-bromophenyl)-1H-indole-1-carboxylate] had a melting point of 88 to 89 °C.

Regarding `CC(C)(C)OC(=O)n1c(-c2ccc(C(F)(F)F)cc2)cc2ccccc21` [4e, tert-butyl 2-(4-(trifluoromethyl)phenyl)-1H-indole-1-carboxylate], the melting point lay in the range of 108 to 109 °C. For `COc1ccc(-c2cc3ccccc3n2C(=O)OC(C)(C)C)cc1` [4g, tert-butyl 2-(4-methoxyphenyl)-1H-indole-1-carboxylate] the value was 89 to 90 °C; for `CC(C)(C)OC(=O)n1c(-c2ccc3ccccc3c2)cc2ccccc21` [4l, tert-butyl 2-(naphthalen-2-yl)-1H-indole-1-carboxylate], 134 to 135 °C; for `CC(C)(C)OC(=O)n1c(-c2ccccc2)cc2c(F)cccc21` [4p, tert-butyl 4-fluoro-2-phenyl-1H-indole-1-carboxylate], 121 to 122 °C. Next, `CC(C)(C)OC(=O)n1c(-c2ccccc2)cc2c(Cl)cccc21` [4q, tert-butyl 4-chloro-2-phenyl-1H-indole-1-carboxylate]: 111 to 112 °C; `COc1cccc2c1cc(-c1ccccc1)n2C(=O)OC(C)(C)C` [4r, tert-butyl 4-methoxy-2-phenyl-1H-indole-1-carboxylate]: 81 to 82 °C; `CC(C)(C)OC(=O)n1c(-c2ccccc2)cc2ccc(Cl)cc21` [4v, tert-butyl 6-chloro-2-phenyl-1H-indole-1-carboxylate]: 61 to 62 °C. `CC(C)(C)OC(=O)n1c(-c2ccccc2)cc2ccc(Br)cc21` [4w, tert-butyl 6-bromo-2-phenyl-1H-indole-1-carboxylate]: the melting point is 54 to 55 °C. For `CC(C)(C)OC(=O)n1c(-c2ccccc2)cc2ccc(C(F)(F)F)cc21` [4x, tert-butyl 2-phenyl-6-(trifluoromethyl)-1H-indole-1-carboxylate] the value was 104 °C. `Cc1ccc2cc(-c3ccccc3)n(C(=O)OC(C)(C)C)c2c1` [4y, tert-butyl 6-methyl-2-phenyl-1H-indole-1-carboxylate]: the melting point was 62 to 64 °C. In the case of `CC(C)(C)OC(=O)n1c(-c2ccccc2)cc2ccccc21` [compound 4, tert-butyl 2-phenyl-1H-indole-1-carboxylate], the melting point is 70 to 72 °C.
